From US8039514B2, “Sulfonamide compounds and use thereof” (Asahi Kasei Pharma Corporation, priority 2008, dated 2011) come the findings set out here.

This test addresses T1, human calcium-sensing receptor (CaSR) (Homo sapiens, UniProt P41180).
T1 construct: expressed in transfected cells
T1 sequence (P41180 20-1078): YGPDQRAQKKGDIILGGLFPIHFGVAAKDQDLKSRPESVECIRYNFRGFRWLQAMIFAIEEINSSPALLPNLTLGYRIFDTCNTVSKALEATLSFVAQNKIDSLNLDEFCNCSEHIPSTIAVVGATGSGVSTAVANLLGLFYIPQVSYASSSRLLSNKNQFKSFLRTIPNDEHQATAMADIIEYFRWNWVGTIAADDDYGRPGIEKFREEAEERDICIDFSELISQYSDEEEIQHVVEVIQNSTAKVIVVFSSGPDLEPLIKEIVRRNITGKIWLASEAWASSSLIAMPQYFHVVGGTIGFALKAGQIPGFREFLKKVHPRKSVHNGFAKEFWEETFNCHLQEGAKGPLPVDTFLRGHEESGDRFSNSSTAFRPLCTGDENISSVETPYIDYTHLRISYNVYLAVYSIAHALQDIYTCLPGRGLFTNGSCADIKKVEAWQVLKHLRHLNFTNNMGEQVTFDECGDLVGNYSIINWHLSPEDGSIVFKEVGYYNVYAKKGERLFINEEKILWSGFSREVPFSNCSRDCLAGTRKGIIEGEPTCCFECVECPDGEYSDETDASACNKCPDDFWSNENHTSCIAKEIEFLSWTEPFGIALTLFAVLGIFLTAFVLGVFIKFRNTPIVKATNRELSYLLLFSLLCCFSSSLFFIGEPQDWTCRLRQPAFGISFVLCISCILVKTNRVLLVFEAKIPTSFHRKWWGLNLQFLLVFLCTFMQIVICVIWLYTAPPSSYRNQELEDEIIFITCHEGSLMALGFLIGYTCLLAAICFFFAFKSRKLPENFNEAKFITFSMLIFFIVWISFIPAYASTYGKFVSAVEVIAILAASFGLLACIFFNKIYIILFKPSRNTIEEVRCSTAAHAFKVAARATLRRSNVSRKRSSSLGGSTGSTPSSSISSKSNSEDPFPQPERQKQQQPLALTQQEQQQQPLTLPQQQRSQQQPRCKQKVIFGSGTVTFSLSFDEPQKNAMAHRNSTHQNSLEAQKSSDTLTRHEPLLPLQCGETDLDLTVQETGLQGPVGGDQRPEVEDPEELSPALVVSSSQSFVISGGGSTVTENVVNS
Briefly: intracellular Ca assay, CaSR antagonist activity in HEK293/hCaSR cells. Type of test: cell-based. Conditions: Fura2-AM, inhibition of response to calcium chloride ligand solution, read-out: IC50 values according to the intracellular Ca assay (CaSR antagonist activity). The procedure, abridged: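 HEK293/hCaSR cells were loaded with Fura2-AM and pre-incubated with compound for 160 s at 37° C in HEPES buffer (pH 7.4, 0.8 mM CaCl2), then challenged with calcium ligand solution. Read-out was the peak 340/380 nm fluorescence ratio; inhibition is relative to no-compound (0%) and no-calcium-ligand (100%) controls.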

For the compound `CN(C[C@H](O)CNC(C)(C)Cc1ccc2ccccc2c1)S(=O)(=O)c1ccc(-c2ccc(C(=O)O)cc2)cc1` [Exp. 3-31, (R)-4′-(N-(2-hydroxy-3-(2-methyl-1-(naphthalen-2-yl)propan-2-ylamino)propyl)-N-methylsulfamoyl)biphenyl-4-carboxylic acid], the IC50 is 300 to 1000 nM.

`CC(C)(CC1Cc2ccccc2C1)NC[C@@H](O)CNS(=O)(=O)c1cccc(-c2cccc(C(=O)O)c2)c1` [Exp. 14-2, (R)-3′-(N-(3-(1-(2,3-dihydro-1H-inden-2-yl)-2-methylpropan-2-ylamino)-2-hydroxypropyl)sulfamoyl)biphenyl-3-carboxylic acid]: the IC50 was ≤ 300 nM. Turning to `Cc1ccc(CC(C)(C)NC[C@@H](O)CN(C)S(=O)(=O)c2cccc(-c3ccc(C(=O)O)cc3F)c2)cc1F` [Exp. 3-67, (R)-2-fluoro-3′-(N-(3-(1-(3-fluoro-4-methylphenyl)-2-methylpropan-2-ylamino)-2-hydroxypropyl)-N-methylsulfamoyl)biphenyl-4-carboxylic acid], the IC50 lay in the range of 300 to 1000 nM. For the compound `CCc1cc(-c2ccc(CCC(=O)O)cc2)ccc1S(=O)(=O)N(C)C[C@H](O)CNC(C)(C)CCCc1ccccc1` [Exp. 3-116, (R)-3-(3′-ethyl-4′-(N-(2-hydroxy-3-(2-methyl-5-phenylpentan-2-ylamino)propyl)-N-methylsulfamoyl)biphenyl-4-yl)propionic acid], the IC50 was ≤ 300 nM.

For the compound `CN(C[C@H](O)CNC(C)(C)CC1Cc2ccccc2C1)S(=O)(=O)c1ccc(-c2ccc(C(=O)O)c(Cl)c2)cc1C(F)(F)F` [Exp. 3-213, (R)-3-chloro-4′-(N-(3-(1-(2,3-dihydro-1H-inden-2-yl)-2-methylpropan-2-ylamino)-2-hydroxypropyl)-N-methylsulfamoyl)-3′-(trifluoromethyl)biphenyl-4-carboxylic acid], the IC50 was ≤ 300 nM. Then `CN(C[C@H](O)CNC(C)(C)CC1Cc2ccccc2C1)S(=O)(=O)c1ccc(CCCCCC(=O)O)c(C(F)(F)F)c1` [Exp. 10-14, (R)-6-(4-(N-(3-(1-(2,3-dihydro-1H-inden-2-yl)-2-methylpropan-2-ylamino)-2-hydroxypropyl)-N-methylsulfamoyl)-2-(trifluoromethyl)phenyl)hexanoic acid], with ≤ 300 nM. To `Cc1cc(CCC(=O)O)sc1-c1cc(C(F)(F)F)cc(S(=O)(=O)N(C)C[C@H](O)CNC(C)(C)CCCc2ccccc2)c1` [Exp. 6-1, (R)-3-(5-(3-(N-(2-hydroxy-3-(2-methyl-5-phenylpentan-2-ylamino)propyl)-N-methylsulfamoyl)-5-(trifluoromethyl)phenyl)-4-methylthiophen-2-yl)propionic acid] belongs ≤ 300 nM; to `CN(C[C@H](O)CNC(C)(C)CC1Cc2ccccc2C1)S(=O)(=O)c1cc(-c2ccc(CC(=O)O)cc2)cc(C(F)(F)F)c1` [Exp. 3-133, (R)-2-(3′-(N-(3-(1-(2,3-dihydro-1H-inden-2-yl)-2-methylpropan-2-ylamino)-2-hydroxypropyl)-N-methylsulfamoyl)-5′-(trifluoromethyl)biphenyl-4-yl)acetic acid], ≤ 300 nM; to `CN(C[C@H](O)CNC(C)(C)CCCc1ccccc1)S(=O)(=O)c1cc(OCC(=O)O)cc(C(F)(F)F)c1` [Exp. 9-179, (R)-2-(3-(N-(2-hydroxy-3-(2-methyl-5-phenylpentan-2-ylamino)propyl)-N-methylsulfamoyl)-5-(trifluoromethyl)phenyloxy)acetic acid], ≤ 300 nM. Then `CN(C[C@H](O)CNC(C)(C)Cc1ccc2ccccc2c1)S(=O)(=O)c1cccc(-c2ccc(C(=O)O)c(F)c2)c1` [Exp. 3-9, (R)-3-fluoro-3′-(N-(2-hydroxy-3-(2-methyl-1-(naphthalen-2-yl)propan-2-ylamino)propyl)-N-methylsulfamoyl)biphenyl-4-carboxylic acid], with 300 to 1000 nM; and `CN(C[C@H](O)CNC(C)(C)Cc1ccc(Cl)c(F)c1)S(=O)(=O)c1cccc(-c2ccc(C(=O)O)cc2F)c1` [Exp. 3-76, (R)-3′-(N-(3-(1-(4-chloro-3-fluorophenyl)-2-methylpropan-2-ylamino)-2-hydroxypropyl)-N-methylsulfamoyl)-2-fluorobiphenyl-4-carboxylic acid], with 1000 to 3000 nM; and `CN(C[C@H](O)CNC(C)(C)CCCc1ccccc1)S(=O)(=O)c1cc(NCC(=O)O)cc(C(F)(F)F)c1` [Exp. 9-180, (R)-2-(3-(N-(2-hydroxy-3-(2-methyl-5-phenylpentan-2-ylamino)propyl)-N-methylsulfamoyl)-5-(trifluoromethyl)phenylamino)acetic acid], with ≤ 300 nM. Consider `CN(C[C@H](O)CNC(C)(C)CCCc1ccccc1)S(=O)(=O)c1cc(-c2ccc(CCC(=O)O)cc2)cc(C(F)(F)F)c1` [Exp. 9-56, (R)-3-(3′-(N-(2-hydroxy-3-(2-methyl-5-phenylpentan-2-ylamino)propyl)-N-methylsulfamoyl)-5′-(trifluoromethyl)biphenyl-4-yl)propionic acid], for which the IC50 is ≤ 300 nM. Regarding `CN(C[C@H](O)CNC(C)(C)CC1Cc2ccccc2C1)S(=O)(=O)c1ccc(-c2cccc(CCC(=O)O)n2)c(Cl)c1` [Exp. 9-161, (R)-3-(6-(2-chloro-4-(N-(3-(1-(2,3-dihydro-1H-inden-2-yl)-2-methylpropan-2-ylamino)-2-hydroxypropyl)-N-methylsulfamoyl)phenyl)pyridin-2-yl)propionic acid], the IC50 is ≤ 300 nM. To `Cc1cc(S(=O)(=O)N(C)C[C@H](O)CNC(C)(C)CC2Cc3ccccc3C2)ccc1-c1cccc(CCC(=O)O)c1` [Exp. 3-178, (R)-3-(4′-(N-(3-(1-(2,3-dihydro-1H-inden-2-yl)-2-methylpropan-2-ylamino)-2-hydroxypropyl)-N-methylsulfamoyl) 2′-methylbiphenyl-3-yl)propionic acid] belongs ≤ 300 nM; to `CCc1cc(-c2c(F)cccc2CCC(=O)O)ccc1S(=O)(=O)N(C)C[C@H](O)CNC(C)(C)CCCc1ccccc1` [Exp. 5-74, (R)-3-(3′-ethyl-6-fluoro-4′-(N-(2-hydroxy-3-(2-methyl-5-phenylpentan-2-ylamino)propyl)-N-methylsulfamoyl)biphenyl-2-yl)propionic acid], ≤ 300 nM; to `Cc1cc(C(=O)O)ccc1-c1cccc(S(=O)(=O)N(C)C[C@H](O)CNC(C)(C)CC2Cc3ccccc3C2)c1` [Exp. 3-220, (R)-3′-(N-(3-(1-(2,3-dihydro-1H-inden-2-yl)-2-methylpropan-2-ylamino)-2-hydroxypropyl)-N-methylsulfamoyl)-2-methylbiphenyl-4-carboxylic acid], ≤ 300 nM. Then `CN(C[C@H](O)CNC(C)(C)CC1Cc2ccccc2C1)S(=O)(=O)c1ccc(-c2ccc(C(=O)O)nc2)c(C(F)(F)F)c1` [Exp. 3-231, (R)-5-(4-(N-(3-(1-(2,3-dihydro-1H-inden-2-yl)-2-methylpropan-2-ylamino)-2-hydroxypropyl)-N-methylsulfamoyl)-2-(trifluoromethyl)phenyl)picolinic acid], with ≤ 300 nM; and `CN(C[C@H](O)CNC(C)(C)CCCc1ccsc1)S(=O)(=O)c1cc(-c2cccc(CCC(=O)O)c2)cc(C(F)(F)F)c1` [Exp. 9-73, (R)-3-(3′-(N-(2-hydroxy-3-(2-methyl-5-(thiophen-3-yl)pentan-2-ylamino)propyl)-N-methylsulfamoyl)-5′-(trifluoromethyl)biphenyl-3-yl)propionic acid], with ≤ 300 nM; and `CN(C[C@H](O)CNC(C)(C)Cc1ccc2ccccc2c1)S(=O)(=O)c1ccc(-c2cc(F)c(C(=O)O)c(F)c2)cc1` [Exp. 3-48, (R)-3,5-difluoro-4′-(N-(2-hydroxy-3-(2-methyl-1-(naphthalen-2-yl)propan-2-ylamino)propyl)-N-methylsulfamoyl)biphenyl-4-carboxylic acid], with ≤ 300 nM. To `CN(C[C@H](O)CNC(C)(C)Cc1ccc2ccccc2c1)S(=O)(=O)c1ccc(-c2ccc(NC(=O)CCC(=O)O)cc2)cc1` [Exp. 3-43, (R)-4-(4′-(N-(2-hydroxy-3-(2-methyl-1-(naphthalen-2-yl)propan-2-ylamino)propyl)-N-methylsulfamoyl)biphenyl-4-ylamino)-4-oxobutanoic acid] belongs 1000 to 3000 nM.

One may read the IC50 as the concentration at which inhibition is half-maximal.
